Here are results for 1 compound from ChEMBL document CHEMBL4118148, “Design, synthesis and cardiovascular evaluation of some aminoisopropanoloxy derivatives of xanthone” (Bioorg Med Chem, 2018).

The test system of series [1] is Rattus norvegicus. In words: Hypotensive activity in normotensive Wistar rat assessed as diastolic blood pressure at 5 mg/kg, iv measured after 30 mins (reference value: 86.5 to 119.4 mmHg). The format is functional.
The subject of series [2] is Rattus norvegicus. Briefly: Cardiotoxicity in Wistar rat assessed as effect on QT interval time at 5 mg/kg, iv measured after 15 mins (reference value: 57.7 to 61 ms). The note with it: in vivo, 0.25 h. The format is toxicity, organism-based.
The next series relates to Blood. Briefly: Anti-aggregative activity in Wistar rat whole blood assessed as inhibition of collagen-induced aggregation up to 100 uM preincubated for 3 mins followed by collagen induction measured for 6 mins. In kind it is functional, tissue-based.
The subject of series [3] is Rattus norvegicus. Briefly: Hypotensive activity in normotensive Wistar rat assessed as systolic blood pressure at 2.5 mg/kg, iv measured after 20 mins (reference value: 148.5 +/- 2.6 mmHg). The format is functional.
The subject of series [4] is Rattus norvegicus. Briefly: Cardiotoxicity in Wistar rat assessed as effect on heart rate at 5 mg/kg, iv measured after 15 mins (reference value: 323 to 374.5 bpm). The note with it: in vivo, 0.25 h. In kind it is toxicity, organism-based.
Series [5] concerns Rattus norvegicus. Briefly: Hypotensive activity in normotensive Wistar rat assessed as diastolic blood pressure at 5 mg/kg, iv measured after 5 mins (reference value: 86.5 to 119.4 mmHg). The format is functional.
Series [6] has as its system Rattus norvegicus. Briefly: Cardiotoxicity in Wistar rat assessed as effect on QRS interval time at 5 mg/kg, iv measured after 15 mins (reference value: 16.7 to 20.7 ms). The format is toxicity, organism-based. The conditions noted are these: in vivo, 0.25 h.
Series [7] has as its system Rattus norvegicus. In words: Cardiotoxicity in Wistar rat assessed as effect on QTC interval time at 5 mg/kg, iv measured after 15 mins (reference value: 136.7 to 146.2 ms). In kind it is toxicity, organism-based. The conditions noted are these: in vivo, 0.25 h.
Series [8] addresses Adrenergic receptor alpha-1 (Rattus norvegicus) (UniProt P15823+P23944+P43140). In words: Displacement of [3H][…]prazosin from adrenergic alpha1 receptor in Wistar rat cortex at 10^-5 M incubated for 30 mins by microbeta liquid scintillation counting analysis. Background: Loss of bound radioactivity is the signal in a displacement assay; it reports binding, not function.
Series [9] deals with Rattus norvegicus. In words: Hypotensive activity in normotensive Wistar rat assessed as systolic blood pressure at 5 mg/kg, iv measured after 30 mins (reference value: 119.2 to 148.6 mmHg). The format is functional.
For series [10], the target named is Beta-2 adrenergic receptor (Cavia porcellus, UniProt Q8K4Z4). In words: Antagonist activity at adrenergic beta2 receptor in isolated guinea pig trachea assessed as inhibition of isoprenaline-induced bronchodilation incubated for 20 mins. The format is functional. The conditions noted are these: read-out: pA2 (converted).
Series [11] relates to Rattus norvegicus. In words: Hypotensive activity in normotensive Wistar rat assessed as systolic blood pressure at 2.5 mg/kg, iv measured after 60 mins (reference value: 148.5 +/- 2.6 mmHg). In kind it is functional.
Series [12] concerns Rattus norvegicus. In words: Cardiotoxicity in Wistar rat assessed as effect on QRS interval time at 5 mg/kg, iv measured after 1 min (reference value: 16.7 to 20.7 ms). The format is toxicity, organism-based. The note with it: in vivo.
Series [13] has as its system Rattus norvegicus. In words: Hypotensive activity in normotensive Wistar rat assessed as reduction in systolic blood pressure at 2.5 mg/kg, iv measured after 5 to 10 mins relative to control. The format is functional. Also on record: scale not given: the % may be the effect or the level left.
Series [14] concerns Rattus norvegicus. Briefly: In vivo inhibition of beta adrenoceptor in Wistar rat assessed as reduction in isoprenaline-induced tachycardia at 5 mg/kg, iv administered as single dose 10 mins prior to isoprenaline injection. In kind it is functional, organism-based.
The subject of series [15] is Rattus norvegicus. Briefly: Hypotensive activity in normotensive Wistar rat assessed as systolic blood pressure at 5 mg/kg, iv measured after 20 mins (reference value: 119.2 to 148.6 mmHg). In kind it is functional.
Series [16] relates to Rattus norvegicus. In words: Hypotensive activity in normotensive Wistar rat assessed as systolic blood pressure at 5 mg/kg, iv measured after 60 mins (reference value: 119.2 to 148.6 mmHg). The format is functional.
The subject of series [17] is Rattus norvegicus. In words: Hypotensive activity in normotensive Wistar rat assessed as reduction in diastolic blood pressure at 2.5 mg/kg, iv measured after 5 to 10 mins relative to control. The format is functional. On the set-up: scale not given: the % may be the effect or the level left.

The source made the active and inactive calls. No cut-off for these calls is given here.

Beta-2 adrenergic receptor, sequence (Q8K4Z4 whole entry): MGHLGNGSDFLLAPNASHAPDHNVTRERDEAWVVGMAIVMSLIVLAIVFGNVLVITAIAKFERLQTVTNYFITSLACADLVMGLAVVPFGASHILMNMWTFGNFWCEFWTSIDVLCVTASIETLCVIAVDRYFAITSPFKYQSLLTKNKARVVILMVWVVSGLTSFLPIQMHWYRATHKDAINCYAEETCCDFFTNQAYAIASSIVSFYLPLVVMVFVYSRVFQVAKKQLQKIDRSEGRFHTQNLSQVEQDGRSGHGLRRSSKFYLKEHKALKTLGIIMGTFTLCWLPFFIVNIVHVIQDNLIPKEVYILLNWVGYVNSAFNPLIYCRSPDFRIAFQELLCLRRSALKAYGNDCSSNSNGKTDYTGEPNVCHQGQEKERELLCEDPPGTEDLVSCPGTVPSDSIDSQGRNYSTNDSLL

For the compound `COc1ccc(CCNCC(O)COc2cccc3c(=O)c4ccccc4oc23)cc1OC.Cl` (racemic), the Activity is on record as 96.2 mmHg in the series with Rattus norvegicus [1]; 132 mmHg with Rattus norvegicus [3]; 265.7 bpm in the series on Rattus norvegicus [4]; 101.4 mmHg in the series with Rattus norvegicus [5]; 128 mmHg in the series with Rattus norvegicus [9]; 133 mmHg in the series on Rattus norvegicus [11]. The Activity in the series with Rattus norvegicus [13] is given as 9 - 12%; with Rattus norvegicus [15] it was 127 mmHg; with Rattus norvegicus [16] it was 129.8 mmHg; in the series on Rattus norvegicus [17], 8 - 16%. For the same compound, the Time in the series on Rattus norvegicus [2] came out at 63.3 ms; in the series with Rattus norvegicus [6], 21.3 ms; with Rattus norvegicus [7], 132.7 ms; in the series with Rattus norvegicus [12], 22.8 ms. The inhibition entry in the series on Blood is “inactive”. Moreover, the result in series [8] was inactive. The Kb in [10] is 41.4 nM. Moreover, in the series on Rattus norvegicus [14], the inhibition entry was “Active”.
